What was measured:
Type in all cases: in vivo
[1] = test system: large crabgrass (Digitaria sanguinalis); experiment: Pre-emergence application, herbicidal effect on large crabgrass (Table 1); design: key: 0: not damaged; 5: completely killed; conditions: 20 days after application, score 0-5
Text: (§1) Seeds of barnyard grass (Echinochloa crus-galli) and large crabgrass (Digitaria sanguinalis) as representatives of grassy weeds and those of radish, redroot pigweed (Amaranthus retroflexus), common purslane (Portulaca oleracea) and common lambsquarter (Chenopodium album) as representatives of broad-leaved weeds were individually sowed in flower pots of about 10 cm. in diameter. After covering the seeds with soil, test compounds as shown in Table 1 were individually applied to the soil treatment. Thereafter the plants were grown in a green house and 20 days after application the herbicidal effects of the compounds were observed, the results of which are as shown in Table 1.
(§2) Herbicidal effects were evaluated by the numerals ranging from 0 (not damaged) to 5 (completely killed). All the test compounds were used in the form of wettable powder and diluted with water before application.

[2] = test system: common purslane (Portulaca oleracea); experiment: Pre-emergence application, herbicidal effect on common purslane (Table 1); design: key: 0: not damaged; 5: completely killed; conditions: 20 days after application, score 0-5
Text: as §1, §2

radish = experiment: Pre-emergence application, herbicidal effect on radish (Table 1); design: key: 0: not damaged; 5: completely killed; conditions: 20 days after application, score 0-5
Text: as §1, §2

[3] = test system: barnyard grass (Echinochloa crus-galli); experiment: Pre-emergence application, herbicidal effect on barnyard grass (Table 1); design: key: 0: not damaged; 5: completely killed; conditions: 20 days after application, score 0-5
Text: as §1, §2

rice = experiment: Water application, phytotoxicity on rice (Table 2); design: key: 0: no effect; 1: very slightly affected; 2: slightly affected; 3: moderately affected; 4: considerably affected; 5: completely killed; conditions: 25 days, score 0-5
Text: (§3) Wagner pots of 14 cm. in diameter, which had been packed with 1.5 kg. of paddy field soil, were brought into the state of paddy fields. To the pots were transplanted rice seedlings at the 3-leave stage. Further, seeds of barnyard grass (Echinochloa crus-galli) were sowed in the pots and required amounts of test compounds were applied to the soil under water lodged condition. 25 days after application, the degrees of herbicidal activity and phytotoxity were investigated on above-mentioned plants which had been transplanted and sowed, and on broad-leaved weeds, e.g., monochoria (Monochoria viaginalis Presl.), false pimpernel (Linderna pyxidaria) and toothcup (Rotala indica Koehue), which had been spontaneously germinated. The test compounds were used in the form of wettable powder. The herbicidal effects and the phytotoxity were evaluated as follows by the numerals ranging from 0 to 5.

[4] = test system: broad-leaved weeds, e.g., monochoria, false pimpernel and toothcup; experiment: Water application, herbicidal effect on broad-leaved weeds (Table 2); design: key: 0: not damaged; 5: completely killed; conditions: 25 days, score 0-5
Text: as §3

[5] = test system: barnyard grass (Echinochloa crus-galli); experiment: Water application, herbicidal effect on barnyard grass (Table 2); design: key: 0: not damaged; 5: completely killed; conditions: 25 days, score 0-5
Text: as §3

[6] = test system: redroot pigweed (Amaranthus retroflexus); experiment: Pre-emergence application, herbicidal effect on redroot pigweed (Table 1); design: key: 0: not damaged; 5: completely killed; conditions: 20 days after application, score 0-5
Text: as §1, §2

[7] = test system: common lambsquarter (Chenopodium album); experiment: Pre-emergence application, herbicidal effect on common lambsquarter (Table 1); design: key: 0: not damaged; 5: completely killed; conditions: 20 days after application, score 0-5
Text: as §1, §2

Structure (SMILES)	Herbicidal effect, large crabgrass ([1]; 10 g./a.)	Herbicidal effect, large crabgrass ([1]; 20 g./a.)	Herbicidal effect, large crabgrass ([1]; 40 g./a.)	Herbicidal effect, common purslane ([2]; 10 g./a.)	Herbicidal effect, common purslane ([2]; 20 g./a.)	Herbicidal effect, common purslane ([2]; 40 g./a.)	Herbicidal effect, radish (radish; 10 g./a.)	Herbicidal effect, radish (radish; 20 g./a.)	Herbicidal effect, radish (radish; 40 g./a.)	Herbicidal effect, barnyard grass ([3]; 10 g./a.)	Herbicidal effect, barnyard grass ([3]; 20 g./a.)	Herbicidal effect, barnyard grass ([3]; 40 g./a.)	Phytotoxicity on rice (rice; 10 g/a)	Phytotoxicity on rice (rice; 20 g/a)	Phytotoxicity on rice (rice; 40 g/a)	Herbicidal effects, broad-leaved weeds ([4]; 10 g/a)	Herbicidal effects, broad-leaved weeds ([4]; 20 g/a)	Herbicidal effects, broad-leaved weeds ([4]; 40 g/a)	Herbicidal effects, barnyard grass ([5]; 10 g/a)	Herbicidal effects, barnyard grass ([5]; 20 g/a)	other results
CCOP(=O)(SCC)SCC(=O)N1CCC(C)CC1 (stereo not drawn) [Compound 100]	5	5	5	3	4	5	0	0	1	4	5	5	0	0	0	5	5	5	5	5	Herbicidal effects, barnyard grass ([5]; 40 g/a): 5; Herbicidal effect, redroot pigweed ([6]; 10 g./a.): 4; Herbicidal effect, redroot pigweed ([6]; 20 g./a.): 4; Herbicidal effect, redroot pigweed ([6]; 40 g./a.): 5; Herbicidal effect, common lambsquarter ([7]; 10 g./a.): 3; Herbicidal effect, common lambsquarter ([7]; 20 g./a.): 4; Herbicidal effect, common lambsquarter ([7]; 40 g./a.): 5
CCCOP(=O)(SCCC)SCC(=O)N1CCCCC1C (stereo not drawn) [Compound 16, O,S-di-n-propyl-S-(2-methylpiperidinocarbamoylmethyl)phosphorodithiolate]	5	5	5	4	4	4	0	0	0	4	4	5	0	0	0	5	5	5	5	5	Herbicidal effects, barnyard grass ([5]; 40 g/a): 5; Herbicidal effect, redroot pigweed ([6]; 10 g./a.): 4; Herbicidal effect, redroot pigweed ([6]; 20 g./a.): 4; Herbicidal effect, redroot pigweed ([6]; 40 g./a.): 4; Herbicidal effect, common lambsquarter ([7]; 10 g./a.): 4; Herbicidal effect, common lambsquarter ([7]; 20 g./a.): 4; Herbicidal effect, common lambsquarter ([7]; 40 g./a.): 5
CCCCOP(=O)(SCC(=O)N1CCCCC1C)SCc1ccc(C)cc1 (stereo not drawn) [Compound 56]	4	5	5	3	3	4	0	0	0	5	5	5	0	0	0	5	5	5	5	5	Herbicidal effects, barnyard grass ([5]; 40 g/a): 5; Herbicidal effect, redroot pigweed ([6]; 10 g./a.): 3; Herbicidal effect, redroot pigweed ([6]; 20 g./a.): 3; Herbicidal effect, redroot pigweed ([6]; 40 g./a.): 5; Herbicidal effect, common lambsquarter ([7]; 10 g./a.): 3; Herbicidal effect, common lambsquarter ([7]; 20 g./a.): 4; Herbicidal effect, common lambsquarter ([7]; 40 g./a.): 5
CCCOP(=O)(SCCC(C)C)SCC(=O)N1CCCCC1C (stereo not drawn) [Compound 69]	5	5	5	4	5	5	0	0	0	4	5	5	0	0	1	5	5	5	5	5	Herbicidal effects, barnyard grass ([5]; 40 g/a): 5; Herbicidal effect, redroot pigweed ([6]; 10 g./a.): 4; Herbicidal effect, redroot pigweed ([6]; 20 g./a.): 5; Herbicidal effect, redroot pigweed ([6]; 40 g./a.): 5; Herbicidal effect, common lambsquarter ([7]; 10 g./a.): 4; Herbicidal effect, common lambsquarter ([7]; 20 g./a.): 5; Herbicidal effect, common lambsquarter ([7]; 40 g./a.): 5
C=C(C)CSP(=O)(OCC)SCC(=O)N1CCCCC1CC (stereo not drawn) [Compound 81]	5	5	5	5	5	5	0	0	1	5	5	5	0	0	1	5	5	5	5	5	Herbicidal effects, barnyard grass ([5]; 40 g/a): 5; Herbicidal effect, redroot pigweed ([6]; 10 g./a.): 5; Herbicidal effect, redroot pigweed ([6]; 20 g./a.): 5; Herbicidal effect, redroot pigweed ([6]; 40 g./a.): 5; Herbicidal effect, common lambsquarter ([7]; 10 g./a.): 5; Herbicidal effect, common lambsquarter ([7]; 20 g./a.): 5; Herbicidal effect, common lambsquarter ([7]; 40 g./a.): 5
CCCOP(=O)(SCCC(C)C)SCC(=O)N1CCCCC1CC (stereo not drawn) [Compound 90]	5	5	5	3	4	5	0	0	0	5	5	5	0	0	1	5	5	5	5	5	Herbicidal effects, barnyard grass ([5]; 40 g/a): 5; Herbicidal effect, redroot pigweed ([6]; 10 g./a.): 3; Herbicidal effect, redroot pigweed ([6]; 20 g./a.): 4; Herbicidal effect, redroot pigweed ([6]; 40 g./a.): 5; Herbicidal effect, common lambsquarter ([7]; 10 g./a.): 3; Herbicidal effect, common lambsquarter ([7]; 20 g./a.): 3; Herbicidal effect, common lambsquarter ([7]; 40 g./a.): 5
CCCCOP(=O)(SCC)SCC(=O)N1CCCCC1C (stereo not drawn) [Compound 15]	5	5	5	5	5	5	0	0	0	5	5	5	0	0	0	5	5	5	5	5	Herbicidal effects, barnyard grass ([5]; 40 g/a): 5; Herbicidal effect, redroot pigweed ([6]; 10 g./a.): 4; Herbicidal effect, redroot pigweed ([6]; 20 g./a.): 5; Herbicidal effect, redroot pigweed ([6]; 40 g./a.): 5; Herbicidal effect, common lambsquarter ([7]; 10 g./a.): 4; Herbicidal effect, common lambsquarter ([7]; 20 g./a.): 5; Herbicidal effect, common lambsquarter ([7]; 40 g./a.): 5

— US4015974A, “Amido phosphorothiolates” (priority 1972, dated 1977)
